Measurements as given in US20220307021A1, “A NEUROPILIN ANTAGONIST IN COMBINATION WITH A P38ALPHA-KINASE INHIBITOR FOR THE TREATMENT OF CANCER” (INSERM (Institut National de la santé et de la Recherche …, priority 2019, published 2022).
pIC50: −log10 of the molar value.

Key:
HIF-1α mRNA = test: RT-PCR of HIF-1α mRNA in MDA-MB-231; assay type: cell-based, human; settings: MDA-MB-231, time dependent, maximum effect at 60 minutes
Procedure: (§1) MDA-MB-231 RNA was extracted with NucleoSpinRNA II kit (Macherey-Nagel, France) and quantified using Nanodrop (ND-1000 spectrophotometer). 1 μg of each RNA sample was reverse-transcripted into cDNA using iScript cDNA Synthesis Kit (Bio-Rad, France) following the manufacturer's instructions. PCR amplification was performed in reaction mixture (25 μL) containing 200 μM of each dNTP, 1 μg of cDNA, 1 μM of primers and 0.625 U of GoTaq DNA Polymerase (Promega, France) with 45 s of denaturation at 95° C., 45 s of annealing at 60° C. and 1 min of extension at 72° C. for 30 cycles. PCR products were separated by 1% agarose gel electrophoresis, stained with ethidium bromide (Sigma, Germany) and analyzed using Gel Doc 2000 System (Bio-Rad, France).

VEGF-A165 mRNA = test: RT-PCR of VEGF-A165 mRNA in MDA-MB-231; assay type: cell-based, human; settings: MDA-MB-231, time dependent, maximum effect at 60 minutes
Procedure: as §1

AKT-1/-2/-3/-pan = test: Human phosphokinase proteome profiler array, MDA-MB-231; assay type: cell-based; settings: MDA-MB-231, compound at IC50, 10 and 60 minutes
Procedure: (§2) MDA-MB-231 cells were incubated in the presence or absence of NRPa-47 or NRPa-48 compounds (IC50) and protein lysates were prepared and quantified as previously described. Biochemical signaling detection was evaluated by using human proteome profiler array (human phosphokinase array and human apoptosis array) according to the manufacturer's instructions (R&D systems, France). Briefly, capture and control antibodies were spotted in duplicate on nitrocellulose membranes. Cellular extracts were incubated overnight on membrane, washed to remove unbound proteins, followed by incubation with a cocktail of biotinylated detection antibodies. Streptavidin-HRP and chemiluminescent detection reagents were applied, and the signal intensity corresponding to the amount of protein bound was measured at each capture spot using ImageJ software.

ERK-1/-2 = test: as above; assay type: cell-based; settings: MDA-MB-231, compound at IC50, 10 and 60 minutes
Procedure: as §2

JNK-1/-2/-3/-pan = test: as above; assay type: cell-based; settings: MDA-MB-231, compound at IC50, 10 and 60 minutes
Procedure: as §2

p38α = test: as above; assay type: cell-based; settings: MDA-MB-231, compound at IC50, 10 and 60 minutes
Procedure: as §2

p38β/p38γ/p38δ = test: as above; assay type: cell-based; settings: MDA-MB-231, compound at IC50, 10 and 60 minutes
Procedure: as §2

[1] = system: RSK-1/RSK-2, MSK-2, HSP-27, GSK-3, p70S6K; test: Human phosphokinase proteome profiler array, MDA-MB-231: downstream kinase substrates; assay type: cell-based; settings: MDA-MB-231, compound at IC50, 10 and 60 minutes
Procedure: as §2

[2] = biological target: selected panel of 40 protein kinases; test: Protein kinase profiling (Eurofins); assay type: biochemical; settings: 1 μM of each NRPa, relative to DMSO control
Procedure: NRPa-47 and NRPa-48 specificity profiling assays were carried out at Eurofins Pharma Discovery Services (Dundee, UK) for Protein Kinase Profiling against a selected panel of 40 protein kinases. Results of protein kinases assayed at 1 μM of each NRPa are presented as a percentage of kinase activity in DMSO control reactions.

MDA-MB-231 [3] = test: Human apoptosis proteome profiler array, MDA-MB-231; assay type: cell-based; settings: for HIF-1α expression: MDA-MB-231, compound at IC50
Procedure: as §2

VEGF-A165/NRP-1 = biological target: T1, VEGF-A165/NRP-1 (Homo sapiens, UniProt O14786); settings: previously described [15]; cited from earlier work
T1 sequence (O14786 22-856 limits assumed): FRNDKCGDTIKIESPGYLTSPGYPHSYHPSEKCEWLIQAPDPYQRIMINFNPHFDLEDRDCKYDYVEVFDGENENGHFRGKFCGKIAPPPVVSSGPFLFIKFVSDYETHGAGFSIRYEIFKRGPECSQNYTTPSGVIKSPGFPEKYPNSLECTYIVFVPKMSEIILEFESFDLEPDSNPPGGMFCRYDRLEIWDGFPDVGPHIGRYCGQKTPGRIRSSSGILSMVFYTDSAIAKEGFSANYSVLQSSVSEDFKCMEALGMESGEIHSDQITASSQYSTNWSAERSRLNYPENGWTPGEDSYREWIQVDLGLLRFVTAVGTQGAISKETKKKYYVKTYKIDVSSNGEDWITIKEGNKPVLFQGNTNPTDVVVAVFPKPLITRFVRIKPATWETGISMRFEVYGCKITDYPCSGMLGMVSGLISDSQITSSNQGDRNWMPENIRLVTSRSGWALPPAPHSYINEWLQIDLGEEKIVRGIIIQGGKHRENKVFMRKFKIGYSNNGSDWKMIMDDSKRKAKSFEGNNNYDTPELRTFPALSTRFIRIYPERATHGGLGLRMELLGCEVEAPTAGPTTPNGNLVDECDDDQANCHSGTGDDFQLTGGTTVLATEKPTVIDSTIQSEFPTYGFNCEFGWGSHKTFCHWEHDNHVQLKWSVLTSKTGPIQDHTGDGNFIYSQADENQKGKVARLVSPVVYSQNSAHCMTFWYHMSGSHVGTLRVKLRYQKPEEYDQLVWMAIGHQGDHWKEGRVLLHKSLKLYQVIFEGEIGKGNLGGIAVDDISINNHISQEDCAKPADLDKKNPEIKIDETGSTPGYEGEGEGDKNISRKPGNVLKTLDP

MDA-MB-231 [4] = settings: read-out: half maximal inhibitory anti-proliferative concentration (IC50); MDA-MB-231, previously reported; cited from earlier work
[5] = system: MDA-MB-231-xenografted NOG mice; test: In vivo xenografted-tumor mouse model
Procedure: Protocol was approved by the INSERM Institutional Care and Use Committee according to the European Communities Council Directive. NOD/scid/IL-2Rγ−/− (NOG) female mice were bred and housed in pathogen-free conditions in accordance with the Federation of European Animal Associations (FELSA) guidelines. […]. […] Tumor growth and body weight were measured every three days during the treatment. Mice were weighed regularly to assess the toxicity of the treatment and the tumors were measured with calipers (width×width×length×Pi/6) to determine growth.

[6] = MDA-MB-231, compound at IC50, 60 minutes and 48 hours

Structure (SMILES) | AKT-1/-2/-3/-pan phosphorylation (AKT-1/-2/-3/-pan) | ERK-1/-2 phosphorylation (ERK-1/-2) | JNK-1/-2/-3/-pan phosphorylation (JNK-1/-2/-3/-pan) | p38α phosphorylation (p38α) | p38β/p38γ/p38δ phosphorylation (p38β/p38γ/p38δ) | GSK-3 phosphorylation [1] | HSP27 phosphorylation [1] | MSK2 phosphorylation [1] | RSK-1 phosphorylation [1] | RSK-2 phosphorylation [1] | kinase activity of 40-selected kinases in vitro [2] | HIF-1α expression (MDA-MB-231 [3]) | anti-apoptotic proteins (Bcl-2, Bcl-x, cIAP-1, cIAP-2, XIAP, Survivin, Livin, Clusterin) and heat shock proteins (HSP-27/-60/-70) level (MDA-MB-231 [3]; [6]) | caspase-3 cleavage (MDA-MB-231 [3]; [6]) | catalase (oxidative stress) (MDA-MB-231 [3]; [6]) | cell cycle protein expression (p21, p27) and phosphorylation of Rad-17 (MDA-MB-231 [3]; [6]) | heme oxygenase HO-1/HMOX1/HSP32 and HO-2/HMOX2 expression (MDA-MB-231 [3]; [6]) | p53 phosphorylation sites (MDA-MB-231 [3]; [6]) | pro-apoptotic proteins (Bad, Bax, SMAC/Diablo, HTRA2/Omi, cytochrome c) level (MDA-MB-231 [3]; [6]) | pIC50 (MDA-MB-231 [4]) | other results
Cc1ccc(-c2nc3ccccc3[nH]2)cc1NC(=S)NC(=O)c1ccc2c(c1)OCCO2 [NRPa-47, N-[5-(1H-benzimidazol-2-yl)-2-methylphenyl]-N′-(2,3-dihydro-1,4-benzodioxin-6-ylcarbonyl)thiourea] | up-regulated | significant hyper-phosphorylations | significant hyper-phosphorylations | significantly decreased | no significant variation | affected | dephosphorylated | dephosphorylated | remained unchanged | increase in phosphorylation | None of these were significantly affected | inhibit HIF-1α expression | significantly reduced | induction | catalase induction | reduction | both reduced | inhibited | rapid decrease | 6.22 | HIF-1α mRNA expression (HIF-1α mRNA): reduced; VEGF-A165 mRNA expression (VEGF-A165 mRNA): reduced; p70S6K phosphorylation [1]: up-regulated; VEGF-A165/NRP-1 binding (VEGF-A165/NRP-1): inhibited VEGF-A165/NRP-1 binding
O=C(NC(=S)Nc1cccc(-c2nc3ccccc3[nH]2)c1)c1ccc2c(c1)OCCO2 [NRPa-48, N-[3-(1H-benzimidazol-2-yl)phenyl]-N′-(2,3-dihydro-1,4-benzodioxin-6-ylcarbonyl)thiourea] | inhibited from 10 minutes until 60 minutes | significantly inhibited | significantly inhibited | significantly inhibited | significantly inhibited | inhibited in a time dependent manner | inhibited in a time dependent manner | inhibited in a time dependent manner | inhibited in a time dependent manner | inhibited in a time dependent manner | None of these were significantly affected | inhibit HIF-1α expression | down-modulated | induction | high level of catalase | reduction | both reduced | inhibited | significantly decreased | 6.40 | PON-2 level (MDA-MB-231 [3]; [6]): remained unchanged; body weight of treated animals ([5]; 50 mg/kg by force-feeding, three times a week): did not show any loss of weight; treated mice alive at the end of treatment ([5]; 50 mg/kg force-feeding): 62%; tumor size reduction compared to the reference group ([5]; 50 mg/kg force-feeding, Day-38 (21 days after starting treatment)): approximately 29%; tumor size reduction ([5]; 50 mg/kg force-feeding, Day-45): 34%; median survival ([5]; 50 mg/kg force-feeding, control group 35 days): over 56 days
